According to patent US20230365530A1, “QUINAZOLINE-2,4-DIAMINE DERIVATIVE AND PHARMACEUTICAL COMPOSITION FOR PREVENTING OR TREATING CANCER COMPRISING SAME AS ACTIVE INGREDIENT” (THE ASEAN FOUNDATION, priority 2020, published 2023):

molecular target: EHMT2 (Euchromatic histone-lysine N-methyltransferase 2) (Homo sapiens (Human), UniProt Q96KQ7); assay: EHMT2 enzyme inhibition, LANCE TR-FRET; type: biochemical; conditions: histone H3 peptide, 1 hour at room temperature
Protocol: In order to analyze the enzyme inhibitory efficacy of the compounds of Examples 1 to 89, EHMT2 (Euchromatic histone-lysine N-methyltransferase 2) enzyme activity was measured using the LANCE TR-FRET™ analysis method of Perkin Elmer. When the EHMT2 enzyme is activated, the 9th lysine residue of the biotinylated-histone peptide is methylated and the EU-conjugated antibody is combined to the methylated histone peptide. Then, when the complex is irradiated with light of excitation wavelength, the complex emits light having a wavelength of 665 nm through FRET phenomenon. Accordingly, fluorescence was measured, and IC50 values were calculated through a software to evaluate the EHMT2 enzyme activity inhibitory effect of the compounds of Examples 1 to 89.
Specific experimental methods are as follows. First, the compounds of Examples 1 to 89 of 1 nM to 100 μM (4× conc.) were put into a 384 well plate (25 μL/well), and 2 μM EEMT2/G9a enzyme (4× conc.) was put into the 384 well plate (25 μL/well). The plate was then centrifuged at 1,500 rpm for 5 seconds after sealing the plate with plate sealing foil. After incubating the EHMT2/G9a enzyme, SAM, and the compounds of Examples above at room temperature for 10 minutes, 2 μM histone H3 peptide (4× conc.) was added to the 384-well plate (25 μL/well). After sealing the plate with plate sealing foil and centrifuging at 1,500 rpm for 5 seconds, an enzymatic reaction was performed at room temperature for 1 hour. Upon completion of the enzyme reaction, 5 μL each of 200 nM Ulight™-Streptavidin (4× conc.) and 8 nM Eu-antibody (4× conc.) was added to each well of the plate. The plate was sealed with plate sealing foil, centrifuged at 1,500 rpm for 5 seconds and reacted at room temperature for 1 hour. The signal values were measured with Envision (Ex 320 nm, Em 665 nm), and all background values obtained by reacting without enzyme were deleted from the measured raw data values. Then, the EHMT2 enzyme activity inhibitory effect of the compounds of Examples 1 to 89 was converted into % values, and compared with the EHMT2 activity when treated with 4% DMSO vehicle (=0 nM compound) as 100%.

EHMT2 (Euchromatic histone-lysine N-methyltransferase 2), sequence (Q96KQ7 whole entry): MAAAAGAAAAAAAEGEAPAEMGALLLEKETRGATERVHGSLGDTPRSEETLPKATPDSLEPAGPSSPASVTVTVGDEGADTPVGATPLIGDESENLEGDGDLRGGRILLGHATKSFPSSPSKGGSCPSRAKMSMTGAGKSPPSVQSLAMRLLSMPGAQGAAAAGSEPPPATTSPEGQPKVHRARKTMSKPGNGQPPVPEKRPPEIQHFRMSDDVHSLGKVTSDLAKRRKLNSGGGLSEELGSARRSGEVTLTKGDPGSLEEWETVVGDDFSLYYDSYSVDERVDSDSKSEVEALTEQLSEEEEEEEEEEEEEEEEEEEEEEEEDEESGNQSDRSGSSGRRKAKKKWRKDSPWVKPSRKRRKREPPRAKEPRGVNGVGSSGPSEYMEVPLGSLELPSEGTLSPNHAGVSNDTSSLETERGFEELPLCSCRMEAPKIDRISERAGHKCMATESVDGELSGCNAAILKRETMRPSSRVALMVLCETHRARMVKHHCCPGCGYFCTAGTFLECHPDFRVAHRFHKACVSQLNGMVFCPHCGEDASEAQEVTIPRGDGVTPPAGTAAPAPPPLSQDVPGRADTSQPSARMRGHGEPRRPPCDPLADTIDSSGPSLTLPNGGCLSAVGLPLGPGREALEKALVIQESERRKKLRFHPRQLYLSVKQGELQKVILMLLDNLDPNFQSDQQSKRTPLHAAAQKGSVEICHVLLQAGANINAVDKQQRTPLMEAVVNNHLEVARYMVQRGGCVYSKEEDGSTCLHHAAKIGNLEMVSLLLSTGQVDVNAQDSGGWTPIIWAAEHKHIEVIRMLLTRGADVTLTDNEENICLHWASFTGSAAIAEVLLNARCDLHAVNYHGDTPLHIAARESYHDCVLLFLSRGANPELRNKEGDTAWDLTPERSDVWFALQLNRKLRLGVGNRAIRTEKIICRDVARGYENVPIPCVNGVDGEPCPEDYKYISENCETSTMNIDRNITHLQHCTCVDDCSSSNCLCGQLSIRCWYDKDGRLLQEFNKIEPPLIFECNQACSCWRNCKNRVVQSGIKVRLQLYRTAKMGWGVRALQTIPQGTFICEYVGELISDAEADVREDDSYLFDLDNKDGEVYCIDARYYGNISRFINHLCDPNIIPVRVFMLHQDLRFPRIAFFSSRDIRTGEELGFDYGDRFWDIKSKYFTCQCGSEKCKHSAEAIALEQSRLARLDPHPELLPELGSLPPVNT

First: COc1cc2c(N[C@@H]3CCCN(Cc4ccccc4)C3)nc(N3CCCCC3)nc2cc1C#CCCN(C)C [Example 19, (R)-N-(1-benzylpiperidine-3-yl)-7-(4-(dimethylamino)-1-butyne-1-yl)-6-methoxy-2-(piperidine-1-yl)quinazoline-4-amine]
Second: COc1cc2c(NC3CCN(c4ccccc4)CC3)nc(N3CCCCC3)nc2cc1C#CCCN(C)C [Example 25, 7-(4-(dimethylamino)-1-butyne-1-yl)-6-methoxy-N-(1-phenylpiperidine-4-yl)-2-(piperidine-1-yl)quinazoline-4-amine]
The IC50 of the first is higher: 10000 to 100000 nM for the first, 1000 to 10000 nM for the second. The second is the more potent here.

First: COc1cc2c(NC3CCN(C(C)C)CC3)nc(N3CCCCCC3)nc2cc1C#CCCN1CCCC1 [Example 36]
Second: COc1cc2c(NC3CCN(C(C)C)CC3)nc(N3CCCCCC3)nc2cc1C#CCCN1CCCCC1 [Example 37, 2-(azepane-1-yl)-N-(1-isopropylpiperidine-4-yl)-6-methoxy-7-(4-(piperidine-1-yl)-1-butyne-1-yl)quinazoline-4-amine]
The IC50 of the first is lower: less than 100 nM for the first, 100 to 1000 nM for the second.

First: COc1cc2c(NCCN(C)C)nc(N(C)C)nc2cc1C#CCCN1CCCC1 [Example 61, N4-(2-(dimethylamino)ethyl)-6-methoxy-N2,N2-dimethyl-7-(4-(pyrrolidine-1-yl)-1-butyne-1-yl)quinazoline-2,4-diamine]
Second: COc1cc2c(NCCN(C)C)nc(N3CCCCC3)nc2cc1C#CCCN(C)C [Example 28, N1-(7-(4-(dimethylamino)-1-butyne-1-yl)-6-methoxy-2-(piperidine-1-yl)quinazoline-4-yl)-N2,N2-dimethylethane-1,2-diamine]
The IC50 of the first is lower: less than 100 nM for the first, 100 to 1000 nM for the second. The first is the more potent here.

First: COc1cc2c(NCc3cccnc3)nc(N3CCCCC3)nc2cc1C#CCCN(C)C [Example 26, 7-(4-(dimethylamino)-1-butyne-1-yl)-6-methoxy-2-(piperidine-1-yl)-N-(pyridine-3-ylmethyl)quinazoline-4-amine]
Second: CCN1CCC(Nc2nc(N3CCCCC3)nc3cc(C#CCCN(C)C)c(OC)cc23)CC1 [Example 50, 7-(4-(dimethylamino)-1-butyne-1-yl)-N-(1-ethylpiperidine-4-yl)-6-methoxy-2-(piperidine-1-yl)quinazoline-4-amine]
The IC50 of the first is higher: 100 to 1000 nM for the first, less than 100 nM for the second.

Compared with `COc1cc2c(NC3CCN(C(C)C)CC3)nc(N3CCC4(CCCC4)C3)nc2cc1C#CCCN1CCCCC1` [Example 41, N-(1-isopropylpiperidine-4-yl)-6-methoxy-7-(4-(piperidine-1-yl)-1-butyne-1-yl)-2-(2-azaspiro[4.4]nonane-2-yl)quinazoline-4-amine], `COc1cc2c(NC3CCN(C(C)C)CC3)nc(N3CCC4(CCCC4)C3)nc2cc1C#CCCN1CCCC1` [Example 40, N-(1-isopropylpiperidine-4-yl)-6-methoxy-7-(4-(pyrrolidine-1-yl)-1-butyne-1-yl)-2-(2-azaspiro[4.4]nonane-2-yl)quinazoline-4-amine] is lower in IC50: 1000 to 10000 nM for the first, 100 to 1000 nM for the second.

Compared with `COc1cc2c(NC3CCN(C(C)C)CC3)nc(N3CCCCC3)nc2cc1C#CCCN1CCC(C)CC1` [Example 15, N-(1-isopropylpiperidine-4-yl)-6-methoxy-7-(4-(4-methylpiperidine-1-yl)-1-butyne-1-yl)-2-(piperidine-1-yl)quinazoline-4-amine], `COc1cc2c(NC3CCN(C(C)C)CC3)nc(N3CCCCC3)nc2cc1C#CCCN1CC[C@@H](F)C1` [Example 30, (R)-7-(4-(3-fluoropyrrolidine-1-yl)-1-butyne-1-yl)-N-(1-isopropylpiperidine-4-yl)-6-methoxy-2-(piperidine-1-yl)quinazoline-4-amine] is lower in IC50: 1000 to 10000 nM for the first, 100 to 1000 nM for the second.

First: COc1cc2c(NC3CCN(C(C)C)CC3)nc(N3CCCCC3)nc2cc1C#CCCC(=O)N(C)C [Example 1, 5-(4-((1-isopropylpiperidine-4-yl)amino)-6-methoxy-2-(piperidine-1-yl)quinazoline-7-yl)-N,N-dimethylpentyne-4-amide]
Second: COc1cc2c(NC3CCN(C(C)C)CC3)nc(N3CCCCCC3)nc2cc1C#CCCN(C)C [Example 8, 2-(azepane-1-yl)-7-(4-(dimethylamino)-1-butyne-1-yl)-N-(1-isopropylpiperidine-4-yl)-6-methoxyquinazoline-4-amine]
The IC50 of the first is higher: 10000 to 100000 nM for the first, less than 100 nM for the second. The second is the more potent here.

Compared with `COc1cc2c(NC3CCN(C(C)C)CC3)nc(N3CCCN(C)CC3)nc2cc1C#CCCN1CCCCC1` [Example 45, N-(1-isopropylpiperidine-4-yl)-6-methoxy-2-(4-methyl1,4-diazepane-1-yl)-7-(4-(piperidine-1-yl)-1-butyne-1-yl)quinazoline-4-amine], `COc1cc2c(NC3CCN(C(C)C)CC3)nc(N3CCCCC3)nc2cc1C#CCCC(=O)N1CCCC1` [Example 2, 5-(4-((1-isopropylpiperidine-4-yl)amino)-6-methoxy-2-(piperidine-1-yl)quinazoline-7-yl)-1-(pyrrolidine-1-yl)4-pentyne-1-one] is higher in IC50: less than 100 nM for the first, 10000 to 100000 nM for the second.

`CCN1CCC(Nc2nc(N(C)C)nc3cc(C#CCCN4CCCC4)c(OC)cc23)CC1` [Example 63, N4-(1-ethylpiperidine-4-yl)-6-methoxy-N2,N2-dimethyl-7-(4-(-pyrrolidine-1-yl)-1-butyne-1-yl)quinazoline-2,4-diamine] and `CCCN1CCC(Nc2nc(N(C)C)nc3cc(C#CCCN4CCCC4)c(OC)cc23)CC1` [Example 83, 6-methoxy-N2,N-dimethyl-N4-(1-propylpiperidine-4-yl)-7-(4-(pyrrolidine-1-yl)-1-butyne-1-yl)quinazoline-2,4-diamine] cannot be ordered by IC50: less than 100 nM for the first, less than 100 nM for the second.

`COc1cc2c(NC3CC(C)(C)NC(C)(C)C3)nc(N3CCCC3)nc2cc1C#CCCN1CCCC1` [Example 73, 6-methoxy-2-(pyrrolidine-1-yl)-7-(4-(pyrrolidine-1-yl)-1-butyne-1-yl)-N-(2,2,6,6-tetramethylpiperidine-4-yl)quinazoline-4-amine] and `CCN1CCC(Nc2nc(N3CCCC3)nc3cc(C#CCCN4CCCC4)c(OC)cc23)CC1` [Example 64, N-(1-ethylpiperidine-4-yl)-6-methoxy-2-(pyrrolidine-1-yl)-7-(4-(pyrrolidine-1-yl)-1-butyne-1-yl)quinazoline-4-amine] cannot be ordered by IC50: less than 100 nM for the first, less than 100 nM for the second.

First: COc1cc2c(NC3CCN(C4CC4)CC3)nc(N3CC[C@@H](F)C3)nc2cc1C#CCCN(C)C [Example 76, (R)-N-(1-cyclopropylpiperidine-4-yl)-7-(4-(dimethylamino)-1-butyne-1-yl)-2-(3-fluoropyrrolidine-1-yl)-6-methoxyquinazoline-4-amine]
Second: COc1cc2c(NC3CCN(C(C)C)CC3)nc(N3CCCC3)nc2cc1C#CCCN(C)C [Example 6, 7-(4-(dimethylamino)-1-butyne-1-yl)-N-(1-isopropylpiperidine-4-yl)-6-methoxy-2-(pyrrolidine-1-yl)quinazoline-4-amine]
The IC50 of the first is higher: 1000 to 10000 nM for the first, less than 100 nM for the second. The second is the more potent here.

First: COc1cc2c(NC3CCN(CCO)CC3)nc(N3CCCC3)nc2cc1C#CCCN1CCCC1 [Example 70, 2-(4-((6-methoxy-2-(pyrrolidine-1-yl)-7-(4-(pyrrolidine-1-yl)-1-butyne-1-yl)quinazoline-4-yl)amino)piperidine-1-yl)ethanol]
Second: COc1cc2c(NC3CCN(C(C)C)CC3)nc(N3CCCC3)nc2cc1/C=C/CCN(C)C [Example 86, (E)-7-(4-(dimethylamino)-1-butene-1-yl)-N-(1-isopropylpiperidine-4-yl)-6-methoxy-2-(pyrrolidine-1-yl)quinazoline-4-amine]
The IC50 of the first is lower: less than 100 nM for the first, 100 to 1000 nM for the second. The first is the more potent here.
